Assay results as given in PubChem BioAssay (NCI).
Where “and” joins values, the source holds several entries; their conditions need not be identical. Equal entries are not always repeated.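 Five compound concentrations were applied to cells in 96-well plates for 48 hours; endpoints were derived by simple linear interpolation of the resulting dose-response curve. Abbreviation: GI50, concentration required for 50% inhibition of growth. TGI marks complete inhibition of growth.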

Columns and labels:
Assay in all cases: inhibition of tumour cell growth, NCI panel, 48 h
A498 renal = system: A498 renal
CCRF-CEM leukemia = system: CCRF-CEM leukemia
DU-145 prostate = system: DU-145 prostate
HCC-2998 colon = system: HCC-2998 colon
MCF7 breast = system: MCF7 breast
NCI/ADR-RES ovarian = system: NCI/ADR-RES ovarian
SF-268 CNS = system: SF-268 CNS
SK-MEL-5 melanoma = system: SK-MEL-5 melanoma
SNB-75 CNS = system: SNB-75 CNS
U251 CNS = system: U251 CNS

Structure (SMILES)	GI50 (A498 renal)	TGI (A498 renal)	GI50 (CCRF-CEM leukemia)	TGI (CCRF-CEM leukemia)	GI50 (DU-145 prostate)	TGI (DU-145 prostate)	GI50 (HCC-2998 colon)	TGI (HCC-2998 colon)	GI50 (MCF7 breast)	TGI (MCF7 breast)	GI50 (NCI/ADR-RES ovarian)	TGI (NCI/ADR-RES ovarian)	GI50 (SF-268 CNS)	TGI (SF-268 CNS)	GI50 (SK-MEL-5 melanoma)	TGI (SK-MEL-5 melanoma)	GI50 (SNB-75 CNS)	TGI (SNB-75 CNS)	GI50 (U251 CNS)	TGI (U251 CNS)
CCOc1cc(C(C)(C)C)ccc1C1=N[C@H](c2ccc(Cl)cc2)[C@H](c2ccc(Cl)cc2)N1C(=O)N1CCN(CC#Cc2cccc3c2CN([C@@H]2CCC(=O)NC2=O)C3=O)CC1	0.197 µM	6.62 µM	0.023 µM	> 100 µM	4.87 µM	> 100 µM	0.905 µM	> 100 µM	0.0712 µM	> 100 µM	1.79 µM	> 100 µM	1.2 µM	> 100 µM	0.868 µM	2.2 µM	0.1 µM	> 43.2 µM	5.47 µM	> 47 µM
CN(C)CCOc1ccc([N+](=O)[O-])c2cccnc12	–	> 100 µM	–	> 100 µM	–	> 100 µM	–	> 100 µM	–	> 100 µM	–	> 100 µM	–	> 100 µM	–	> 100 µM	–	> 100 µM	–	> 100 µM
COc1ccc2c(c1)NC1=C(C(=O)OC1)C2c1cc(OC)c(OC)c(OC)c1 (stereo not drawn)	< 0.01 µM	< 0.01 µM	< 0.01 µM	> 100 µM	< 0.01 µM	< 0.01 µM	< 0.01 µM	–	< 0.01 µM	> 100 µM	< 0.01 µM	0.0277 µM	< 0.01 µM	> 100 µM	< 0.01 µM	< 0.0116 µM	< 0.01 µM	40 µM	< 0.01 µM	> 100 µM
C=C(C)C1CC2(C)C(C)CC(O)CC2C(OC(=O)C=C(C)C)C1O (stereo not drawn)	–	> 100 µM	–	84.7 µM	–	> 100 µM	–	> 100 µM	–	86 µM	–	> 100 µM	–	> 100 µM	–	49.2 µM	–	40.5 µM	–	> 100 µM
N[C@H](C(=O)O)[C@@H]1CC(Cl)=NO1	45.5 µM	> 887 µM	5.76 µM	700 µM	99.6 µM	> 1000 µM	–	329 µM	4.77 µM	325 µM	37.7 µM	530 µM	10.2 µM	> 848 µM	8.51 µM	493 µM	–	> 1000 µM	9.73 µM	> 1000 µM
CCCCCCCCCCCCCCCCCCOC[C@H](COP(=O)(O)O[C@H]1[C@H](O)[C@@H](O)[C@H](O)C[C@H]1O)OC	–	> 100 µM	–	12.7 µM and 46 µM	> 100 µM and 17.3 µM	> 100 µM and 34.5 µM	24.2 µM and 6.97 µM	> 100 µM and 20.5 µM	> 100 µM and 17.3 µM	> 100 µM and 32.2 µM	> 100 µM and 18.3 µM	> 100 µM and 33.5 µM	> 100 µM and 15 µM	> 100 µM and 29.7 µM	> 100 µM and 18 µM	> 100 µM and 32.3 µM	–	59.6 µM and 27.9 µM	33 µM and 5.89 µM	> 100 µM and 19.2 µM
CN(C)CCC(=O)N1C/C(=C\c2ccc(Cl)c(Cl)c2)C(=O)/C(=C/c2ccc(Cl)c(Cl)c2)C1	–	4.6 µM	–	0.738 µM	–	0.867 µM	–	0.955 µM	–	0.701 µM	–	1.06 µM	–	0.653 µM	–	0.759 µM	–	1.3 µM	–	0.437 µM
C=CC(=O)N1CCC(Oc2cc3c(Nc4ccc(Cl)c(Cl)c4F)ncnc3cc2OC)CC1	0.365 µM and 0.179 µM	1.92 µM and 0.834 µM	2.33 µM and 3.37 µM	55.9 µM and > 10 µM	–	15.4 µM and > 10 µM	7.61 µM and 2.52 µM	24.8 µM and > 10 µM	2.05 µM and 1.42 µM	21.7 µM and > 10 µM	1.43 µM and 1.41 µM	10.3 µM and > 9.25 µM	0.743 µM and 0.466 µM	19.4 µM and > 7.14 µM	7.18 µM and 3.47 µM	19.3 µM and > 9 µM	1.07 µM and 0.48 µM	13.7 µM and 4.4 µM	7.13 µM and 3.33 µM	27 µM and > 10 µM
Nc1n[nH]c2cccc(C#Cc3cccc(NC(=O)c4cccc(C(F)(F)F)c4)c3)c12	2.41 µM	5.57 µM	2.69 µM	15.9 µM	5.69 µM	17.6 µM	2.43 µM	7.31 µM	3 µM	15.8 µM	3.91 µM	23.2 µM	3.82 µM	16.3 µM	4.13 µM	14.8 µM	2.79 µM	18.6 µM	5.32 µM	17.2 µM
CCN(CC)CCNC(Cc1ccccc1)c1ccc(OCc2ccccc2)cc1 (stereo not drawn)	2.02 µM	7.94 µM	3.19 µM	13.7 µM	8.54 µM	21.1 µM	5.17 µM	17.4 µM	3.03 µM	12 µM	9.87 µM	23.2 µM	7.57 µM	22.3 µM	1.97 µM	4.46 µM	4.29 µM	18 µM	3.41 µM	15.3 µM
C[C@]12CCc3sc(Nc4ccc(OC(F)(F)F)cc4)nc3C1=CC[C@@H]1[C@@H]2CC[C@]2(C)C(=O)CC[C@@H]12	2.09 µM	5.77 µM	1.42 µM	> 100 µM	4.31 µM	25.1 µM	5.32 µM	18.6 µM	1.82 µM	4.14 µM	3.93 µM	20.2 µM	3.01 µM	12.3 µM	2.62 µM	7.41 µM	1.88 µM	6.23 µM	1.09 µM	3.26 µM
COc1cccc2c1C(=N)c1c(O)c3c(c(O)c1C2=O)C[C@@](O)(C(C)=O)C[C@@H]3O[C@H]1C[C@H](N)[C@H](O)[C@H](C)O1	1.5 µM	5.86 µM	0.0829 µM	3.76 µM	0.292 µM	1.72 µM	0.474 µM	2.51 µM	0.0379 µM	5.2 µM	45.3 µM	> 100 µM	0.339 µM	3.62 µM	0.523 µM	2.17 µM	0.159 µM	2.08 µM	0.144 µM	2.14 µM
Cc1nnc(-c2ccc(C)c(-c3ccc(C(=O)Nc4cccc(C#N)c4)cc3)c2)o1	> 25 µM	> 25 µM	> 25 µM	> 25 µM	> 25 µM	> 25 µM	> 25 µM	> 25 µM	> 25 µM	> 25 µM	> 25 µM	> 25 µM	> 25 µM	> 25 µM	> 16.2 µM	> 25 µM	> 25 µM	> 25 µM	> 25 µM	> 25 µM
COc1cc(C2c3cc4c(cc3OC(C)(N3CCCC3)C2C)OCO4)cc(OC)c1OC (stereo not drawn)	–	5.7 µM	–	> 50.3 µM	–	2.57 µM	–	2.57 µM	–	16.3 µM	–	0.522 µM	–	> 92.9 µM	–	1.58 µM	–	0.65 µM	–	23.3 µM
